From US20060058312A1, “Stabilized aqueous preparation for injection” (priority 2004, published 2006)

What was measured:
[1] = Change of pH value of the aqueous solution during storage; assay type: physicochemical; details: added to aqueous solution of the calcium salt, pH 6 to 7, during storage
[2] = Transmittance and coloring of the aqueous solution during storage; assay type: physicochemical; details: added to aqueous solution of the calcium salt, during storage
Source text: The suppressing effect can be attained by the action of ascorbic acid which has been stabilized by sodium pyrosulfite.

O=C1O[C@H]([C@@H](O)CO)C(O)=C1O [ascorbic acid]
suppression of the change of the pH value to the acid region [1]: effectively be suppressed
suppression of the lowering of the transmittance and the coloring [2]: effectively be suppressed
